This passage reports IC50 and JAK2/JAK1 results from patent US10519163B2, “Pyrrolopyrimidine derivatives as TAM inhibitors” (Incyte Corporation, priority 2015, dated 2019).

The target of one test is PI3Kδ (Homo sapiens (Human), UniProt O00329). The following applies: cited from earlier work.
A further test concerns the target Tyro3 (Homo sapiens (Human), UniProt Q06418). Nature of the test: TAM Kinase Assay (HTRF), Tyro3. Format: biochemical. The following applies: 0.366 nM Tyro3, HTRF, 60 min room temperature; read-out: Tyro3IC50. In general terms: Time-resolved FRET reads energy transfer from a long-lived donor to a nearby acceptor.
Another test deals with JAK2 (Homo sapiens (Human), UniProt O60674). As to conditions: selectivity ratio, IC50 at 1 mM ATP; cited from earlier work.
Another test concerns the target JAK1 (Homo sapiens (Human), UniProt P23458). As to conditions: cited from earlier work.
For the next test, the target named is phosphor-Axl (Homo sapiens (Human), UniProt P30530). The test can be described thus: TAM Kinase Assay (HTRF), phosphor-Axl.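 Further: test enzyme was recombinant Axl protein, pre-activated by autophosphorylation with ATP and MgCl2.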 Type of test: biochemical. The following applies: 5.1 nM phosphor-Axl, HTRF, 60 min room temperature; read-out: Phospho-Axl IC50.
Sequence of phosphor-Axl (P30530 26-894): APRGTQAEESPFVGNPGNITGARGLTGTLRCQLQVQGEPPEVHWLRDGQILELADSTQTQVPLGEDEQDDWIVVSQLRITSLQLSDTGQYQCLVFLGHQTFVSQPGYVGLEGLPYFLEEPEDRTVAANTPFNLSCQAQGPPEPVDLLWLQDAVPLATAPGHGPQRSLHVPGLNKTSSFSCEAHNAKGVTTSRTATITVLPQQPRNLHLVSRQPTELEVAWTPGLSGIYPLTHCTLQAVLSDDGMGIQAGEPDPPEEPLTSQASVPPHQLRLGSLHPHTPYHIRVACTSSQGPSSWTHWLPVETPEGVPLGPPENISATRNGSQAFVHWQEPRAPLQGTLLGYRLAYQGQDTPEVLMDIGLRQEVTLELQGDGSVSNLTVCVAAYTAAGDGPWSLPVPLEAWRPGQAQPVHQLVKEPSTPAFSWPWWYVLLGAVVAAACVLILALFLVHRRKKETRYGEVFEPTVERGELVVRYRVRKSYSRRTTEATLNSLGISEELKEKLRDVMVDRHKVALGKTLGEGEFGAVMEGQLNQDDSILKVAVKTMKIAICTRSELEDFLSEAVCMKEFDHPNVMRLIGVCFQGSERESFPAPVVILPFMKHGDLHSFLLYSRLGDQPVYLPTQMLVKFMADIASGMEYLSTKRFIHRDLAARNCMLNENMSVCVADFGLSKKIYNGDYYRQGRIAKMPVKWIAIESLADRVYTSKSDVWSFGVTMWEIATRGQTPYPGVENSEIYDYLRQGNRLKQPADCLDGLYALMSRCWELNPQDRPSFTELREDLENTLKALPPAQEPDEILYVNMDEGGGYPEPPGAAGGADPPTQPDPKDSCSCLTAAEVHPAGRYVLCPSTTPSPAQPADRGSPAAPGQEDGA

Sequence of Tyro3 (Q06418 41-890): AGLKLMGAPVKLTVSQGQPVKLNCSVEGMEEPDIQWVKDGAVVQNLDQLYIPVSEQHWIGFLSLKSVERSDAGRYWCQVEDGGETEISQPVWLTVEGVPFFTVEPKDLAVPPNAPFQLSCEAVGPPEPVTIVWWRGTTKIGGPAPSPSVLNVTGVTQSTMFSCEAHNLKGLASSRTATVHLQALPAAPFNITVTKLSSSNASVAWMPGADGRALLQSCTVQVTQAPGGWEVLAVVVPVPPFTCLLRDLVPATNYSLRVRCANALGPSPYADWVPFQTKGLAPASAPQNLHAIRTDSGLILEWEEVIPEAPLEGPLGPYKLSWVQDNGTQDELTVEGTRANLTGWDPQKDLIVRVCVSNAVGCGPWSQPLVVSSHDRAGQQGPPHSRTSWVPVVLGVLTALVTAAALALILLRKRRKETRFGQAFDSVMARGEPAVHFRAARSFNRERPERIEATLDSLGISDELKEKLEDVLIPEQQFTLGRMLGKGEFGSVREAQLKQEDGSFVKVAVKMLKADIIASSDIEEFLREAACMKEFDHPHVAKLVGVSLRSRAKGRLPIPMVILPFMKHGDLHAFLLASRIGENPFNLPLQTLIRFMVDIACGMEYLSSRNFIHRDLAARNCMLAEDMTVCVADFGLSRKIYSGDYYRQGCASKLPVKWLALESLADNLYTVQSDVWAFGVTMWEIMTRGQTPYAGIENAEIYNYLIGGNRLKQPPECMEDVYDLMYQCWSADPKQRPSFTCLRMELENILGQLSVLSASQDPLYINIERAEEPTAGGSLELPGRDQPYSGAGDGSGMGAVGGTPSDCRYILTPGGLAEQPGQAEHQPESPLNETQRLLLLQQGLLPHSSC
Sequence of PI3Kδ (O00329 whole entry, looked up, species assumed): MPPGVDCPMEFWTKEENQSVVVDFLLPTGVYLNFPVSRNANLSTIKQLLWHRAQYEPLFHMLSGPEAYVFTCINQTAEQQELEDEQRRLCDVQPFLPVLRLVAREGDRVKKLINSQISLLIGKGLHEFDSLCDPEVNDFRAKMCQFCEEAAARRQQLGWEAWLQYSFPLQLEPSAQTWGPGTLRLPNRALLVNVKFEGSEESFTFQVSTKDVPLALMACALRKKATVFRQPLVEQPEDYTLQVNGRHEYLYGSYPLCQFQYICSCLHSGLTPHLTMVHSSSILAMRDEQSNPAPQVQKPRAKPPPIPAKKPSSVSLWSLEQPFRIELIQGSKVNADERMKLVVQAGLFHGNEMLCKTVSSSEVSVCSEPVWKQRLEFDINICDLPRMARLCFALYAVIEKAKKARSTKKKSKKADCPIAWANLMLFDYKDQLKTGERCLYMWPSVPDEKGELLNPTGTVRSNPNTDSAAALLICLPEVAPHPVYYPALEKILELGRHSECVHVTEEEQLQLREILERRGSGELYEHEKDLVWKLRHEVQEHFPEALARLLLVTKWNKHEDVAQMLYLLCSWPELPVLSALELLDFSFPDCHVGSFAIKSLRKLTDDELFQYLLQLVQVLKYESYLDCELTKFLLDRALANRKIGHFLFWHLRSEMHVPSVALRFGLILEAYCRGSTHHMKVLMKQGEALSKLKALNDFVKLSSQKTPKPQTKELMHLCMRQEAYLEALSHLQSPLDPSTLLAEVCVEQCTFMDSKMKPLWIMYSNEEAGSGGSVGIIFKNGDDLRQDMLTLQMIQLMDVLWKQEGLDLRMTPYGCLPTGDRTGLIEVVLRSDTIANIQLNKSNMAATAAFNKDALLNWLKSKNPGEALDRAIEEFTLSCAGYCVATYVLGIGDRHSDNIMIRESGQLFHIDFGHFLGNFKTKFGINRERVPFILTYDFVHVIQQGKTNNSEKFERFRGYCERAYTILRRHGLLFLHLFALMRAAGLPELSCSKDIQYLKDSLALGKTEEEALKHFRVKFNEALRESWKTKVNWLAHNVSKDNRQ
Sequence of PI3Kδ (P27986 whole entry partner, looked up, species assumed): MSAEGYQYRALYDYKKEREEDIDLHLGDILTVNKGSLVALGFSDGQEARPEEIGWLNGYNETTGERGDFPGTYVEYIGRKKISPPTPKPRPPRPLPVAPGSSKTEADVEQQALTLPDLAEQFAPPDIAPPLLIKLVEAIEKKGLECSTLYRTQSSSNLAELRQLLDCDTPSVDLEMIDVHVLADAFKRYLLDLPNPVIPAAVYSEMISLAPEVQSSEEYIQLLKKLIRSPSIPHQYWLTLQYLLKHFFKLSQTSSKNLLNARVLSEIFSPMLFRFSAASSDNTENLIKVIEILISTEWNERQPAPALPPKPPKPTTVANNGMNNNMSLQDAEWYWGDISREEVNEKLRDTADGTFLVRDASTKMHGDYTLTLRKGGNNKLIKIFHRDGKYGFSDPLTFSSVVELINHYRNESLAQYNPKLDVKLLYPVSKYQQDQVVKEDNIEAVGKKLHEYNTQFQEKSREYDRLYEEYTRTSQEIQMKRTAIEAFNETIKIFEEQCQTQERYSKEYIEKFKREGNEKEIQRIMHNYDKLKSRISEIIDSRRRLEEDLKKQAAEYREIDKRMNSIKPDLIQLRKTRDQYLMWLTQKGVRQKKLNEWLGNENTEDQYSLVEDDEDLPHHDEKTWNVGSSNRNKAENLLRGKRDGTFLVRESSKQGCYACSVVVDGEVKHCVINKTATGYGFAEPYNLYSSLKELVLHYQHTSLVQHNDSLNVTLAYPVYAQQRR
Sequence of JAK1 (P23458 whole entry, species assumed): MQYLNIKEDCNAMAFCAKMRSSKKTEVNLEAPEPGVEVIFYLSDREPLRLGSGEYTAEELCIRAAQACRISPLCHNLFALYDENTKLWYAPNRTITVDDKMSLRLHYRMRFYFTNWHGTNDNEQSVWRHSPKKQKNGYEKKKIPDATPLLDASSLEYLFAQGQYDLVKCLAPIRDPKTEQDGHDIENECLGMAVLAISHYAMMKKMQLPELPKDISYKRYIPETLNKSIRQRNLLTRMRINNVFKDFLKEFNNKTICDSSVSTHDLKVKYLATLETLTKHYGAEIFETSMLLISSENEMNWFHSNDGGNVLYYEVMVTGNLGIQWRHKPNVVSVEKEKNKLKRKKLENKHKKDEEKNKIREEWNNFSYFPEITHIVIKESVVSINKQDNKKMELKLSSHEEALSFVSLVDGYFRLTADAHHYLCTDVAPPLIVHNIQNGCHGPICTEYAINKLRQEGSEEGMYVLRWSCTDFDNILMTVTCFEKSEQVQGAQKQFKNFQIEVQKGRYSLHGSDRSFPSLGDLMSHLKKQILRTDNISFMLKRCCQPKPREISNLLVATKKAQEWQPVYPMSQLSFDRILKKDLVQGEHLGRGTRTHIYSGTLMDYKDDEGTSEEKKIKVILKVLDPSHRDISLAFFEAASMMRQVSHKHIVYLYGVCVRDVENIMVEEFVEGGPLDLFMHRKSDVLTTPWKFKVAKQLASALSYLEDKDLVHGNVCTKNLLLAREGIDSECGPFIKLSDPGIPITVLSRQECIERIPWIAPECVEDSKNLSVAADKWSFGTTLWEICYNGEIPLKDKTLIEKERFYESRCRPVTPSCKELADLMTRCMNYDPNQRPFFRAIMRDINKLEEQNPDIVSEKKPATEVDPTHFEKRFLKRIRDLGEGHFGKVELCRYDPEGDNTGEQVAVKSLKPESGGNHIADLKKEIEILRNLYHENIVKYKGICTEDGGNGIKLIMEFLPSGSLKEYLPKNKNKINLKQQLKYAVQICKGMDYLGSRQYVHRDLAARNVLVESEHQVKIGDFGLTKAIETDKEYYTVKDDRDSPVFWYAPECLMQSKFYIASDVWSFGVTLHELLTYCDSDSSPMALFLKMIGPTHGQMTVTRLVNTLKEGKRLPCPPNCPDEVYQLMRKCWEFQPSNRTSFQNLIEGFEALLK
Procedure for Tyro3: (§1) 0.1 ul test compounds dissolved in DMSO were transferred from compound plates to white 384-well assay plates (Greiner [sequence] plates). […] The plate was protected from light and incubated at room temperature for 60 min.
Procedure for phosphor-Axl: Autophosphorylation of Axl was carried out by incubating the recombinant Axl protein (Life Technologies, PV4275) in buffer containing 50 mM Tris, pH7.5, 0.2 mg/ml Axl, 5 mM ATP, 20 mM MgCl2 and 2 mM DTT at room temperature for 1 hour.
as §1

As for `O=C(NCC1(c2cccc(-c3ncnc4[nH]ccc34)c2)Cc2ccccc2C1)c1ccco1` [Example 34, N-({2-[3-(7H-Pyrrolo[2,3-d]pyrimidin-4-yl)phenyl]-2,3-dihydro-1H-inden-2-yl}methyl)-2-furamide], the IC50 on PI3Kδ is 50 to 100 nM; on Tyro3, > 3000 nM.
Take `O=C(NCC1(c2cccc(-c3ncnc4[nH]ccc34)c2)Cc2ccccc2C1)C1CCC1` [Example 26, N-({2-[3-(7H-Pyrrolo[2,3-d]pyrimidin-4-yl)phenyl]-2,3-dihydro-1H-inden-2-yl}methyl)cyclobutanecarboxamide]: the JAK2/JAK1 at JAK2 was >10. Besides, the IC50 on Tyro3 was > 3000 nM; on JAK1 it was < 10 nM; on phosphor-Axl, < 500 nM.
